Laboratory results: ChEMBL document CHEMBL3774369, “Tetrahydroisoquinoline Phenols: Selective Estrogen Receptor Downregulator Antagonists with Oral Bioavailability in Rat” (ACS Med Chem Lett, 2016)
pIC50: −log10 of the molar value.

Key:
[1] = Percentage unbound in human plasma by equilibrium dialysis method; assay type: ADME, cell-free
physchem = conditions: buffer, pH 7.4
[2] = Intrinsic clearance in human hepatocytes assessed per 10^6 cells; assay type: ADME, cell-based, Hepatocyte; conditions: read-out: CLH
[3] = Percentage unbound in Han Wistar rat plasma by equilibrium dialysis method; assay type: ADME, cell-free
[4] = Intrinsic clearance in Han Wistar rat hepatocytes assessed per 10^6 cells; assay type: ADME, cell-based, Hepatocyte; conditions: read-out: CLH
[5] = Half life in rat at 0.5 mg/kg, iv; assay type: ADME, organism-based; conditions: in vivo
[6] = Clearance in rat at 0.5 mg/kg, iv or 1 mg/kg, po; assay type: ADME, organism-based; conditions: in vivo
[7] = Volume of distribution at steady state in rat at 0.5 mg/kg, iv or 1 mg/kg, po; assay type: ADME, organism-based; conditions: in vivo, read-out: Vdss
[8] = Half life in rat at 1 mg/kg, po; assay type: ADME, organism-based; conditions: in vivo
in vivo = conditions: rat, po, 1 mg/kg
[9] = target: Voltage-gated inwardly rectifying potassium channel KCNH2 (Homo sapiens, UniProt Q12809); experiment: Inhibition of human ERG tail current by plate-based planar patch clamp system
Chain of Voltage-gated inwardly rectifying potassium channel KCNH2 (Q12809 whole entry): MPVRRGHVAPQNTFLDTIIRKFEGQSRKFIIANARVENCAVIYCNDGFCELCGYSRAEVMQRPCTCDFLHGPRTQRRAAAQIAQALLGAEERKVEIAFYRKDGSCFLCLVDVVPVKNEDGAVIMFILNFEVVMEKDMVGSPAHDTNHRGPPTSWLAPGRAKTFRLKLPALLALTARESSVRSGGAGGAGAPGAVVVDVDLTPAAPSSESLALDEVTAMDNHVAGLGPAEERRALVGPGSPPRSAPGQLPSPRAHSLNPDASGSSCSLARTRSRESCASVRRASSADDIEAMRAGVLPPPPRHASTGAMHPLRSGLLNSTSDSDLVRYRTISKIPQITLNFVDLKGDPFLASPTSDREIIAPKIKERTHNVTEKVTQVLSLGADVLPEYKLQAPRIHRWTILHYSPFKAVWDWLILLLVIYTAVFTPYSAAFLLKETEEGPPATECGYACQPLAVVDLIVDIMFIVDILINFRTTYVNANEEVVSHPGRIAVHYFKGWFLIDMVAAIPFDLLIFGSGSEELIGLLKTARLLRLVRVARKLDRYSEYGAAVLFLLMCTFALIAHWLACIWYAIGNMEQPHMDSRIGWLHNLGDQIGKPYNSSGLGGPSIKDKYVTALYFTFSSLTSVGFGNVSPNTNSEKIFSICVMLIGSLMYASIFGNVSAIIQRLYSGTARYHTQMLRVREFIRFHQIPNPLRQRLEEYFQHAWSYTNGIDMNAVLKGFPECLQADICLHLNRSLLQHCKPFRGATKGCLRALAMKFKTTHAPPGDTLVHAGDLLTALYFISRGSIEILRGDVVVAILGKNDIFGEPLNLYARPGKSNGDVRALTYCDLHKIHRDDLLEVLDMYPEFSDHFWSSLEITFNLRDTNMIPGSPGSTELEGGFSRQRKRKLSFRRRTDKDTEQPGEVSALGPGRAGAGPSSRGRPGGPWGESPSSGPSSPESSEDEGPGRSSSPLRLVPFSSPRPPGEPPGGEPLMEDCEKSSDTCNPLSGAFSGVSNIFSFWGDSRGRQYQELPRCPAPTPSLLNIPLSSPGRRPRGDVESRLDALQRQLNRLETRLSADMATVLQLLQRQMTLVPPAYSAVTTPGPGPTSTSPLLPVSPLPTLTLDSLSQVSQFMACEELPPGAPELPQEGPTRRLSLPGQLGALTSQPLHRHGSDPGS

[10] = Solubility of compound in aqueous phosphate buffer at pH 7.4 after 24 hrs; assay type: physicochemical
[11] = Inhibition of cytochrome P450 (unknown origin); assay type: ADME, Homo sapiens
Mu-type opioid receptor = Mu-type opioid receptor (Homo sapiens, UniProt P35372); experiment: Inhibition of human recombinant mu1 opioid receptor expressed in HEK293 cells; assay type: cell-based
Chain of Mu-type opioid receptor (P35372 whole entry): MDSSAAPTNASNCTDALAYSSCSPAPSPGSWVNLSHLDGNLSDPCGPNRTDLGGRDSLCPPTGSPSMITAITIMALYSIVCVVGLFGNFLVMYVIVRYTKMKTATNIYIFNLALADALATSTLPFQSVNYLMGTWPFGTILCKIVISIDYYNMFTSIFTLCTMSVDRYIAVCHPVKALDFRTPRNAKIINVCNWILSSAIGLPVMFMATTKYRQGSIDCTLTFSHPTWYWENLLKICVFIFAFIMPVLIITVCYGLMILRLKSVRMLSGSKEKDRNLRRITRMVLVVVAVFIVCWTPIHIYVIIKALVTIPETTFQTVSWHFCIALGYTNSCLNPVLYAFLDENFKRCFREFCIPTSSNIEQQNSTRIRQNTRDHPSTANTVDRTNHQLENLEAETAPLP

B2 bradykinin receptor = target: T1, B2 bradykinin receptor (Homo sapiens, UniProt P30411); experiment: Inhibition of recombinant human bradykinin receptor 2 expressed in CHO cells; assay type: cell-based
T1 sequence (P30411 whole entry): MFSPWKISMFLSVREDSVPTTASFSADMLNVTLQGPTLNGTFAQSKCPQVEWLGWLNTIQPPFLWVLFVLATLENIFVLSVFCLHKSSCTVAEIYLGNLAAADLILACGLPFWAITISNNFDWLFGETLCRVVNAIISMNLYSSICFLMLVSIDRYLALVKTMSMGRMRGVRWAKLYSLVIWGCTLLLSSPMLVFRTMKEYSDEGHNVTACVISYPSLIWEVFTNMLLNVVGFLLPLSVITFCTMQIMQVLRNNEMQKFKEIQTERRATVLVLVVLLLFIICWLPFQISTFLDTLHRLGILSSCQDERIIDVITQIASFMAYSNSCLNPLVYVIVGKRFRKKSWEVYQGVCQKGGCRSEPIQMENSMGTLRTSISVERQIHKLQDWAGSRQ

Adenosine receptor A1 = target: T2, Adenosine receptor A1 (Homo sapiens, UniProt P30542); experiment: Inhibition of recombinant human adenosine receptor A1 expressed in CHO cells; assay type: cell-based
T2 sequence (P30542 whole entry): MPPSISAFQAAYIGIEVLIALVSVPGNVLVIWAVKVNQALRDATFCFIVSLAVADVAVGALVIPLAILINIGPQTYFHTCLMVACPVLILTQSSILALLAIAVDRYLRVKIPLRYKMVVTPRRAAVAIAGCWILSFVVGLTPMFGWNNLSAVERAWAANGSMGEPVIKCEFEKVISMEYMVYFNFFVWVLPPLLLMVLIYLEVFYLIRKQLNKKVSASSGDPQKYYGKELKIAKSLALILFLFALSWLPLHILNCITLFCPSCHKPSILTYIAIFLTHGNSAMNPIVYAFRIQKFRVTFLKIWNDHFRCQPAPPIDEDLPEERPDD

| SMILES | fraction unbound [1] | logD (physchem) | hepatocyte CLint [2] [µL/min/1e6 cells] | fraction unbound [3] | hepatocyte CLint [4] [µL/min/1e6 cells] | half-life [5] [h] | clearance [6] [mL/min/kg] | Vd [7] [L/kg] | half-life [8] [h] | bioavailability (in vivo) [%] | pIC50 [9] | solubility at 24 h [10] [µM] | pIC50 [11] | pIC50 (Mu-type opioid receptor) | pIC50 (B2 bradykinin receptor) | pIC50 (Adenosine receptor A1) |
| --- | --- | --- | --- | --- | --- | --- | --- | --- | --- | --- | --- | --- | --- | --- | --- | --- |
| CC(C)(F)CN1[C@H](c2ccc(/C=C/C(=O)O)cc2)c2ccc(O)cc2CC1(C)C | 0.007 | 2.3 | 19 | 0.025 | 59 |  |  |  |  |  |  |  |  |  |  |  |
| CC(C)CN1CCc2cc(O)ccc2[C@@]1(C)c1ccc(/C=C/C(=O)O)cc1 | 0.009 | 2.2 | 40 | 0.019 | 33 |  |  |  |  |  |  |  |  |  |  |  |
| C[C@H](CF)CN1[C@H](c2c(F)cc(/C=C/C(=O)O)cc2F)c2ccc(O)cc2CC1(C)C | 0.002 | 3.1 | 39 | 0.005 | 68 |  |  |  |  |  |  |  |  |  |  |  |
| C[C@@H]1Cc2cc(O)ccc2[C@@H](c2c(F)cc(/C=C/C(=O)O)cc2F)N1CC(C)(C)F | 0.023 | 2.1 | 78 | 0.011 | 74 |  |  |  |  |  |  |  |  |  |  |  |
| COc1ccc2c(c1)C[C@@H](C)N(CC(C)C)[C@@H]2c1ccc(/C=C/C(=O)O)cc1 | 0.02 | 2.3 | 56 | 0.034 | 43 |  |  |  |  |  |  |  |  |  |  |  |
| CC(C)CN1CCc2cc(O)ccc2[C@@H]1c1ccc(/C=C/C(=O)O)cc1 | 0.019 | 1.4 | 4 | 0.087 | 49 |  |  |  |  |  |  |  |  |  |  |  |
| C[C@H](CF)CN1[C@H](c2ccc(/C=C/C(=O)O)cc2)c2ccc(O)cc2C[C@H]1C | 0.026 |  | 100 | 0.024 | 47 |  |  |  |  |  |  |  |  |  |  |  |
| COC[C@H](C)CN1[C@H](c2c(F)cc(/C=C/C(=O)O)cc2F)c2ccc(O)cc2C[C@H]1C | 0.038 | 1.6 | 45 | 0.053 | 110 |  |  |  |  |  |  |  |  |  |  |  |
| Cc1c(O)ccc2c1CCN(CC(C)C)[C@@H]2c1ccc(/C=C/C(=O)O)cc1 | 0.024 | 1.6 | 9 | 0.063 | 32 |  |  |  |  |  |  |  |  |  |  |  |
| O=C(O)/C=C/c1ccc(C2c3ccc(O)cc3CCN2c2ccc(OC(F)(F)F)cc2)cc1 (stereo unspecified) | 0.0006 | 3.7 | 11 | 0.0006 | 20 |  |  |  |  |  |  |  |  |  |  |  |
| COC[C@H](C)CN1[C@H](c2c(F)cc(/C=C/C(=O)O)cc2F)c2ccc(O)cc2CC1(C)C | 0.01 | 2 | 88 | 0.042 | 180 |  |  |  |  |  |  |  |  |  |  |  |
| Cc1cc2c(cc1O)CCN(CC(C)C)[C@@H]2c1ccc(/C=C/C(=O)O)cc1 | 0.091 | 1.8 | 17 | 0.088 | 17 |  |  |  |  |  |  |  |  |  |  |  |
| CC(C)CN1[C@H](c2ccc(/C=C/C(=O)O)cc2)c2ccccc2C[C@H]1C | 0.021 | 2.5 | 45 | 0.016 | 24 |  |  |  |  |  |  |  |  |  |  |  |
| CC(C)CN1[C@H](C)Cc2cc(O)ccc2[C@@]1(C)c1ccc(/C=C/C(=O)O)cc1 | 0.015 | 2.7 | 18 | 0.013 | 15 | 2.4 | 19 | 1.6 | 5.6 | 33 |  |  |  |  |  |  |
| COC[C@H](C)CN1[C@H](c2ccc(/C=C/C(=O)O)cc2)c2ccc(O)cc2C[C@H]1C | 0.16 | 1 | 7 | 0.12 | 27 | 0.2 | 63 | 0.6 | 1.9 | 3 |  |  |  |  |  |  |
| O=C(O)/C=C/c1ccc(C2c3ccc(O)cc3CCN2Cc2ccccc2)cc1 (stereo unspecified) | 0.007 | 2.2 | 150 | 0.013 | 40 |  |  |  |  |  |  |  |  |  |  |  |
| O=C(O)/C=C/c1ccc(C2c3ccc(O)cc3CCN2c2ccccc2)cc1 (stereo unspecified) | 0.012 | 2.4 | 67 | 0.012 | 87 |  |  |  |  |  |  |  |  |  |  |  |
| CC(C)CN1[C@H](c2ccc(/C=C/C(=O)O)cc2)c2ccc(O)cc2C[C@H]1C | 0.07 | 1.7 | 33 | 0.075 | 22 | 0.2 | 49 | 0.6 | 3.9 | 86 | < 4.52 | > 1500 | < 4.52 | 4.92 | 4.70 | 4.54 |
| CC(C)CN1[C@H](c2ccc(/C=C/C(=O)O)cc2)c2ccc(O)cc2CC1(C)C | 0.035 | 1.5 | 6 | 0.11 | 7 | 5.8 | 21 | 5.9 | 7.4 | 66 |  |  |  |  |  |  |
| CC(C)CN1[C@H](c2c(F)cc(/C=C/C(=O)O)cc2F)c2ccc(O)cc2CC1(C)C | 0.005 | 2.7 | 33 | 0.004 | 34 |  |  |  |  | > 70 |  |  |  |  |  |  |
| C[C@@H]1Cc2cc(O)ccc2[C@@H](c2ccc(/C=C/C(=O)O)cc2)N1c1ccc(OC(F)(F)F)cc1 | 0.009 | 4.2 | 9 | 0.0002 | 9 | 4.2 | 4.2 | 1.1 | 6.7 |  |  |  |  |  |  |  |
| CC(C)CN1CCc2cc(O)ccc2[C@H]1c1ccc(/C=C/C(=O)O)cc1 | 0.063 | 1.3 | 38 | 0.037 | 38 | 0.2 | 44 | 0.5 | 3 | 26 |  |  |  |  |  |  |
| C[C@H](CF)CN1[C@H](c2ccc(/C=C/C(=O)O)cc2)c2ccc(O)cc2CC1(C)C | 0.01 | 1.8 | 14 | 0.028 | 24 |  |  |  |  | > 70 |  |  |  |  |  |  |
| C[C@H](CF)CN1[C@H](c2c(F)cc(/C=C/C(=O)O)cc2F)c2ccc(O)cc2C[C@H]1C | 0.009 | 2.5 | 170 | 0.01 | 94 |  |  |  |  |  |  |  |  |  |  |  |
